Experimental data reported in patent US10696972B2, “Method for improving learning” (St. Jude Children's Research Hospital, Inc., priority 2015, dated 2020).

Columns and labels:
A1R mRNA = assay: Cortical map plasticity in the ACx after passive tone exposure, A1R shRNA knock-down; type: in vivo, mouse; details: adult WT mice, shRNA injected into auditory thalamus (MGv), passive exposure to a 9.8-kHz tone
Protocol: (§1) Mice were housed in ventilated sound-proof chambers with ad libitum food and water and maintained on a 12:12 hour light:dark cycle. Mice were exposed to continuous sound stimulation for 5 to 14 days, consisting of repeated trains of tones. Each train consisted of 5 tones delivered at 5 Hz. A pure tone of certain frequencies (7 kHz, 7.9 kHz, 9.8 kHz, 11.4 kHz, or 16.4 kHz) was used. The tone duration was 50 ms with 5-ms cosine onset/offset ramps at 70-dB sound pressure level (SPL). Trains were separated by 1 s. Naïve (nonexposed) mice were housed in a similar fashion but received no sound stimulation.
Mice were anesthetized with sodium pentobarbital (50 mg/kg) and chlorprothixene (0.2 mg) followed by supplemental doses of sodium pentobarbital (15-25 mg/kg supplements as needed). Spike responses to sound stimulation were recorded from the primary (A1) ACx (depth, 350-420 μm from the pial surface) with Epoxylite-coated tungsten microelectrodes (2.0 MΩ at 1 kHz; FHC, Brunswick, Me.). Frequency response areas (FRAs) were measured with randomly presented tone pips of varying frequency (4.0-44.6 kHz in 0.1-octave increments, 20-ms duration, 5-ms raised cosine onset/offset ramps, 500-ms intertone interval) and level (0- to 70-dB SPL in 10-dB increments). Tones were generated by an electrostatic speaker [Tucker-Davis Technologies (TDT), Alachua, Fla.], which was placed 10 cm from the contralateral ear of the mouse. The ipsilateral ear was plugged with agar. Spike responses to tone pips were amplified with an RA4PA fiber optic preamplifier, filtered (high pass=250 Hz, low pass=5000 Hz), and digitized with an RZ6 real-time processor (TDT). The threshold for spike detection was set at a signal-to-noise ratio of 3:1. TDT System 3 software (OpenEx) controlled both sound stimulus generation and response acquisition and was used for data storage. Cortical maps in the A1 were generated from FRAs measured at 30 to 40 sites per mouse, each separated by 50 to 100 μm. FRAs were analyzed with TDT System 3 software (Open Explorer) for characteristic frequencies (CFs) collated in bins of 0.22 octaves. […]

Nt5e = assay: Cortical map plasticity in the ACx after passive tone exposure, Nt5e shRNA knock-down; type: in vivo, mouse; details: mature WT mice, shRNA injected into auditory thalamus, exposed to 11.4 kHz
Protocol: as §1
Mice were anesthetized with sodium pentobarbital (50 mg/kg) and chlorprothixene (0.2 mg) followed by supplemental doses of sodium pentobarbital (15-25 mg/kg supplements as needed). Spike responses to sound stimulation were recorded from the primary (A1) ACx (depth, 350-420 μm from the pial surface) with Epoxylite-coated tungsten microelectrodes (2.0 MΩ at 1 kHz; FHC, Brunswick, Me.). Frequency response areas (FRAs) were measured with randomly presented tone pips of varying frequency (4.0-44.6 kHz in 0.1-octave increments, 20-ms duration, 5-ms raised cosine onset/offset ramps, 500-ms intertone interval) and level (0- to 70-dB SPL in 10-dB increments). […] Cortical maps in the A1 were generated from FRAs measured at 30 to 40 sites per mouse, each separated by 50 to 100 μm. […]

“scrambled (control) shRNA: scrambled control shRNA; coding DNA 5′-TACGTCCAAGGTCGGGCAGGAAGA-3′ (SEQ ID NO: 9) [reference compound]” was tested, and the ACx map plasticity (A1R mRNA) was “no cortical map plasticity”.

In the case of “A1R shRNA (123): shRNA against A1R mRNA, lentivector; coding DNA 5′-CGATGCTACCTTCTGCTTCATCGTATCCC-3′ (SEQ ID NO: 10)”, the ACx map plasticity (A1R mRNA) is reported as “sufficient to induce ACx map plasticity”.

In the case of “Nt5e shRNA (1366): shRNA against Nt5e, lentivector; coding DNA 5′-GGAATCCATGTGGTGTACGATATTAACCG-3′ (SEQ ID NO: 13)”, the “percentage of sites with a CF of 11.4 kHz compared to naïve mice” value (Nt5e) is reported as “significantly larger percentage of sites with a CF of 11.4 kHz”.

With “Nt5e shRNA (1264): shRNA against Nt5e, lentivector; coding DNA 5′-ACATTTGACCTCGTCCAATTAAAAGGGTC-3′ (SEQ ID NO: 12)” the “percentage of sites with a CF of 11.4 kHz compared to naïve mice” value (Nt5e) was “significantly larger percentage of sites with a CF of 11.4 kHz”.

With “A1R shRNA (789): shRNA against A1R mRNA, lentivector; coding DNA 5′-CCAGAAACCCAGCATCCTCATCTACATTG-3′ (SEQ ID NO: 11)” the ACx map plasticity (A1R mRNA) was “sufficient to induce ACx map plasticity”.
